In patent US12023319B2, “Carboxylic acid aromatic amides” (priority 2016, dated 2024):

What follows are compounds tested against T1, human Bradykinin B1 receptor (Homo sapiens, UniProt P46663) (assay: Calcium flux assay (FLIPR), CHO-K1 cells expressing human Bradykinin B1 receptor, absence of 0.1% BSA (hB1 free IC50)). Conditions: absence of 0.1% BSA in assay buffer.
T1 construct: host or cells: CHO-K1
T1 sequence (P46663 1-353): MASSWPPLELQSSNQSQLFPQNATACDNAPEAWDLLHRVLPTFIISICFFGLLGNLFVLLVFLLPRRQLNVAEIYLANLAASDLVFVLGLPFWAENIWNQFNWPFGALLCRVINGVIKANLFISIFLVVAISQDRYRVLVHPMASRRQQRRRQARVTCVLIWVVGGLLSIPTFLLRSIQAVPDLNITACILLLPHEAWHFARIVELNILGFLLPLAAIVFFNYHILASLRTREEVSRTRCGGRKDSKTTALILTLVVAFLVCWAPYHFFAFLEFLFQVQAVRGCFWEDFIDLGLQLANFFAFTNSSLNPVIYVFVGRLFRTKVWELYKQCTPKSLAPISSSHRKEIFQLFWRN
Type: cell-based
Protocol: The potency to inhibit the Bradykinin B1 receptor was determined for the Compound Examples of this invention in a cell-based fluorescent calcium-mobilisation assay. The assay measures the ability of Compound Examples to inhibit Bradykinin B1 receptor agonist-induced increase of intracellular free Ca^2+ in the cell line expressing Bradykinin B1 receptor. Specifically, calcium indicator-loaded cells are pre-incubated in the absence or presence of different concentrations of Compound Examples followed by the stimulation with a selective Bradykinin B1 receptor agonist peptide. The change of the intracellular Ca^2+ concentration is monitored with a fluorescent plate reader FLIPR^TETRA® (Molecular Devices).
Calcium Flux Assays (FLIPR) with Cells Expressing Human Bradykinin B1 Receptor (hB1)
CHO-K1 cell line expressing human Bradykinin B1 receptor is purchased from Euroscreen (Gosselies, Belgium, with reference name hB1-D1). The cells are grown in Nutrient Mixture Ham's F12 (Sigma) containing 10% Foetal bovine serum (Sigma) and 400 μg/mL G418 (Sigma), 5 μg/mL puromycin (Sigma).
The effect of BSA on the potency of endothelin receptor antagonists have been described in the prior art (Wu-Wong, J. R. et al. (1997), JPET 281: 791-798). The teaching can be applied in analogy to testing the potency of Bradykinin B1 receptor antagonist in the FLIPR assays.
For the calcium flux assay, 80% confluent cells are detached from the culture vessels with Versene (Gibco), and seeded into 384-well plates (Cell binding Surface; Corning, NY; #3683) at a density of 15,000 cells per well. Cells are seeded in a volume of 50 μL in medium without antibiotics and incubated overnight in a humidified atmosphere with 5% CO2 at 37° C. […] The calcium indicator loaded cells are incubated at 37° C. for 2 hrs. Extracellular dye is then removed and each well is filled with 45 μL of assay buffer. Cell plates are kept in dark until used. Compound examples are assayed at 8 concentrations in triplicate. Serial 10-fold dilutions in 100% DMSO are made at a 100-times higher concentration than the final concentration, and then diluted 1:10 in assay buffer. 5 μL of each diluted compound is added to the well of cell plates (yielding final concentration with 1% DMSO), and incubated for 30 min at 28° C. before the addition of Bradykinin B1 receptor agonist on the FLIPR instrument.
The addition of agonist 20 μl per well to the assay plate is carried out on the FLIPR instrument while continuously monitoring Ca2+-dependent fluorescence at 538 nm. A peptide antagonist Lys-(Des-Arg-Leu)-Bradykinin (Bachem, Brackley) at 20 µM is used to determine the full inhibition as control.
Peak fluorescence is used to determine the response to agonist obtained at each concentration of Compound Examples by the following equation: % Response=100*(RFU(compound)−RFU(control))/(RFU(DMSO)−RFU(control))
RFU means relative fluorescence units.
Control means full inhibition by the peptide antagonist Lys-(Des-Arg-Leu)-Bradykinin at 20 µM.
The response values are plotted against the logarithm of the compound concentrations. The Compound Examples are tested in triplicates per plate and mean values are plotted in Excel XLfit to determine IC50 values, percentage of maximal inhibition and the Hill slopes.

Going from `CC1CCC(C2(C(=O)Nc3cc(F)c(-c4cnn(C5CCC5)c4)c(C(=O)O)c3)CC2)CC1` (mixture of isomers) [Example 144, 2-(1-Cyclobutyl-1H-pyrazol-4-yl)-3-fluoro-5-({[1-(4-methylcyclohexyl)cyclopropyl]carbonyl}amino)benzoic acid] to `O=C(O)c1cc(NC(=O)C2(c3ccc(Cl)cc3)CC2)cc(F)c1-c1cnn(C2CCC2)c1` [Example 35, 5-({[1-(4-Chlorophenyl)cyclopropyl]carbonyl}amino)-2-(1-cyclobutyl-1H-pyrazol-4-yl)-3-fluorobenzoic acid], the IC50 falls from 320 nM to 26 nM (12-fold).

Going from `O=C(O)c1cc(NC(=O)C2(c3cc(F)c(F)cc3F)CC2)ccc1-c1ccc(C(F)(F)F)nc1` [Example 8, 2-[6-(Trifluoromethyl)pyridin-3-yl]-5-({[1-(2,4,5-trifluorophenyl)cyclopropyl]carbonyl}amino)benzoic acid] to `CC(F)(F)c1ccc(-c2ccc(NC(=O)C3(c4ccc(C(F)(F)F)cc4F)CC3)cc2C(=O)O)cn1` [Example 31, 2-[6-(1,1-Difluoroethyl)pyridin-3-yl]-5-[({1-[2-fluoro-4-(trifluoromethyl)phenyl]cyclopropyl}carbonyl)amino]benzoic acid], the IC50 falls from 690 nM to 130 nM (5.3-fold). The second is the more potent here.

`O=C(O)c1cc(NC(=O)C2(c3ccc(C(F)(F)F)cc3F)CC2)ccc1-n1ccc(CC(F)(F)F)n1` [Example 15, 5-[({1-[2-Fluoro-4-(trifluoromethyl)phenyl]cyclopropyl}carbonyl)amino]-2-[3-(2,2,2-trifluoroethyl)-1H-pyrazol-1-yl]benzoic acid] and `O=C(O)c1cc(NC(=O)C2(c3ccc(C(F)(F)F)cc3F)CC2)ccc1-n1cc(C(F)(F)F)cn1` [Example 16, 5-[({1-[2-Fluoro-4-(trifluoromethyl)phenyl]cyclopropyl}carbonyl)amino]-2-[4-(trifluoromethyl)-1H-pyrazol-1-yl]benzoic acid] are within 1.5-fold of each other in IC50: 3600 nM for the first, 2800 nM for the second.

Compared with `CCC(F)(F)c1ccc(-c2ccc(NC(=O)C3(c4ccc(C(F)(F)F)cc4)CC3)cc2C(=O)O)cn1` [Example 21, 2-[6-(1,1-Difluoropropyl)pyridin-3-yl]-5-[({1-[4-(trifluoromethyl)phenyl]cyclopropyl}carbonyl)amino]benzoic acid], `CCC(F)(F)c1ccc(-c2ccc(NC(=O)C3(c4ccc(OC(F)(F)F)cc4)CC3)cc2C(=O)O)cn1` [Example 22, 2-[6-(1,1-Difluoropropyl)pyridin-3-yl]-5-[({1-[4-(trifluoromethoxy)phenyl]cyclopropyl}carbonyl)amino]benzoic acid] is 2.4-fold lower in IC50: 710 nM for the first, 290 nM for the second.

Compared with `CCC(F)(F)c1ccc(-c2ccc(NC(=O)C3(c4ccc(F)cc4F)CC3)cc2C(=O)O)cn1` [Example 23, 5-({[1-(2,4-Difluorophenyl)cyclopropyl]carbonyl}amino)-2-[6-(1,1-difluoropropyl)pyridin-3-yl]benzoic acid], `CCC(F)(F)c1ccc(-c2ccc(NC(=O)C3(c4ccc(Cl)cc4F)CC3)cc2C(=O)O)cn1` [Example 24, 5-({[1-(4-Chloro-2-fluorophenyl)cyclopropyl]carbonyl}amino)-2-[6-(1,1-difluoropropyl)pyridin-3-yl]benzoic acid] is 8.3-fold lower in IC50: 2400 nM for the first, 290 nM for the second. The second is the more potent here.

Going from `Cc1ccc(C2(C(=O)Nc3ccc(-c4ccc(C(C)(F)F)nc4)c(C(=O)O)c3)CC2)c(F)c1` [Example 30, 2-[6-(1,1-Difluoroethyl)pyridin-3-yl]-5-({[1-(2-fluoro-4-methylphenyl)cyclopropyl]carbonyl}amino)benzoic acid] to `CC(F)(F)c1ccc(-c2ccc(NC(=O)C3(c4ccc(OC(F)(F)F)cc4F)CC3)cc2C(=O)O)cn1` [Example 32, 2-[6-(1,1-Difluoroethyl)pyridin-3-yl]-5-[({1-[2-fluoro-4-(trifluoromethoxy)phenyl]cyclopropyl}carbonyl)amino]benzoic acid], the IC50 falls from 410 nM to 190 nM (2.2-fold).

Compared with `CC(O)c1ccc(-c2ccc(NC(=O)C3(c4ccc(C(F)(F)F)cc4F)CC3)cc2C(=O)O)cn1` (stereo not drawn) [Example 33, 5-[({1-[2-Fluoro-4-(trifluoromethyl)phenyl]cyclopropyl}carbonyl)amino]-2-[6-(1-hydroxyethyl)pyridin-3-yl]benzoic acid], `O=C(O)c1cc(NC(=O)C2(c3ccc(C(F)(F)F)cc3F)CC2)ccc1-c1ccc(Cl)s1` [Example 47, 2-(5-Chloro-2-thienyl)-5-[({1-[2-fluoro-4-(trifluoromethyl)phenyl]cyclopropyl}carbonyl)amino]benzoic acid] is 2-fold lower in IC50: 460 nM for the first, 230 nM for the second. The second is the more potent here.

Compared with `O=C(O)c1cc(NC(=O)C2(c3ccc(C(F)(F)F)cc3F)CC2)ccc1-c1cnn(CC(F)(F)F)c1` [Example 34, 5-[({1-[2-Fluoro-4-(trifluoromethyl)phenyl]cyclopropyl}carbonyl)amino]-2-[1-(2,2,2-trifluoroethyl)-1H-pyrazol-4-yl]benzoic acid], `O=C(O)c1cc(NC(=O)C2(c3ccc(C(F)(F)F)cc3F)CC2)ccc1-c1ccc(C(F)(F)F)s1` [Example 48, 5-[({1-[2-Fluoro-4-(trifluoromethyl)phenyl]cyclopropyl}carbonyl)amino]-2-[5-(trifluoromethyl)-2-thienyl]benzoic acid] is 7.1-fold higher in IC50: 31 nM for the first, 220 nM for the second. The first is the more potent here.

Compared with `O=C(O)c1cc(NC(=O)C2(c3ccc(F)c(F)c3)CC2)cc(F)c1-c1cnn(C2CCC2)c1` [Example 38, 2-(1-Cyclobutyl-1H-pyrazol-4-yl)-5-({[1-(3,4-difluorophenyl)cyclopropyl]carbonyl}amino)-3-fluorobenzoic acid], `O=C(O)c1cc(NC(=O)C2(c3ccc(Cl)c(F)c3)CC2)ccc1-c1cnn(C2CCC2)c1` [Example 49, 5-({[1-(4-Chloro-3-fluorophenyl)cyclopropyl]carbonyl}amino)-2-(1-cyclobutyl-1H-pyrazol-4-yl)benzoic acid] is 2.1-fold higher in IC50: 22 nM for the first, 47 nM for the second.

`O=C(O)c1cc(NC(=O)C2(c3ccc(C(F)(F)F)cc3F)CC2)ccc1-c1cn(C2CCC2)nc1F` [Example 45, 2-(1-Cyclobutyl-3-fluoro-1H-pyrazol-4-yl)-5-[({1-[2-fluoro-4-(trifluoromethyl)phenyl]cyclopropyl}carbonyl)amino]benzoic acid] and `O=C(O)c1cc(NC(=O)C2(c3ccc(C(F)(F)F)cc3)CC2)ccc1-c1cnn(C2CCC2)c1` [Example 50, 2-(1-Cyclobutyl-1H-pyrazol-4-yl)-5-[({1-[4-(trifluoromethyl)phenyl]cyclopropyl}carbonyl)amino]benzoic acid] are within 1.5-fold of each other in IC50: 55 nM for the first, 62 nM for the second.

First: O=C(O)c1cc(NC(=O)C2(c3ccc(C(F)(F)F)cc3F)CC2)ccc1-c1cc2cccnc2s1 [Example 46, 5-[({1-[2-Fluoro-4-(trifluoromethyl)phenyl]cyclopropyl}carbonyl)amino]-2-(thieno[2,3-b]pyridin-2-yl)benzoic acid]
Second: O=C(O)c1cc(NC(=O)C2(c3cc(F)ccc3F)CC2)ccc1-c1cnn(C2CCC2)c1 [Example 55, 2-(1-Cyclobutyl-1H-pyrazol-4-yl)-5-({[1-(2,5-difluorophenyl)cyclopropyl]carbonyl}amino)benzoic acid]
The IC50 of the first is 4.8-fold lower: 58 nM for the first, 280 nM for the second.

Compared with `O=C(O)c1cc(NC(=O)C2(c3cccc(Cl)c3F)CC2)ccc1-c1cnn(C2CCC2)c1` [Example 52, 5-({[1-(3-Chloro-2-fluorophenyl)cyclopropyl]carbonyl}amino)-2-(1-cyclobutyl-1H-pyrazol-4-yl)benzoic acid], `O=C(O)c1cc(NC(=O)C2(c3ccc(F)c(Cl)c3)CC2)ccc1-c1cnn(C2CCC2)c1` [Example 56, 5-({[1-(3-Chloro-4-fluorophenyl)cyclopropyl]carbonyl}amino)-2-(1-cyclobutyl-1H-pyrazol-4-yl)benzoic acid] is 8.7-fold lower in IC50: 740 nM for the first, 85 nM for the second. The second is the more potent here.
